This passage reports TGI results from PubChem BioAssay (NCI).

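Interpolation was linear, between the two tested concentrations surrounding the appropriate level; five concentrations were tested over 48 hours in 96-well plates. TGI: concentration producing complete growth inhibition.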 Where a SMILES comes first, the peptide text is derived from it. [ ]: non-standard residue; d: D form. The star is where a group is joined. ξ: configuration not given here. Propanoyl(3-(4-MeO-Ph)) = COc1ccc(CCC(=O)*)cc1; Thr(3ξ) = CC(O)[C@H](N)C(=O)O; dNMeL = CN[C@H](CC(C)C)C(=O)O; OBn = c1ccc(CO*)cc1; ξLac = CC(O)C(=O)O

Common to all, as to test: growth of human tumour cells (NCI), 48 h
The test system of experiment [1] is NCI-H23 lung.
In experiment [2] the test system is HCT-15 colon.
Experiment [3] has as its system UO-31 renal.
Experiment [4] relates to UACC-62 melanoma.
The subject of experiment [5] is PC-3 prostate.
Experiment [6] concerns HOP-92 NSCLC.
Experiment [7] relates to SK-MEL-5 melanoma.
Experiment [8] deals with HL-60(TB) leukemia.
For experiment [9], the system named is EKVX NSCLC.
For experiment [10], the system named is NCI-H460 lung.
The subject of experiment [11] is HT29 colon.
The test system of experiment [12] is OVCAR-5 ovarian.
Experiment [13] deals with IGROV1 ovarian.
Experiment [14] relates to CAKI-1 renal.
Experiment [15] deals with ACHN renal.
Experiment [16] concerns KM12 colon.
Experiment [17] has as its system A549 NSCLC.
The subject of experiment [18] is NCI/ADR-RES ovarian.
The subject of experiment [19] is SNB-19 CNS.

As to `O=C(CCc1ccccc1CO)NCCc1ccccc1`, the TGI in experiment [1], in [2], in [3], in experiment [4], in [5] and in [6] was more than 100 µM throughout. The TGI in experiment [7], in experiment [8], in experiment [9], in experiment [10], in experiment [11] and in experiment [12] was more than 100 µM in each case. Further, the TGI in [13], in experiment [14], in [15], in experiment [16], in experiment [17] and in [18] was more than 100 µM throughout. Moreover, the TGI in [19] was more than 100 µM.
As to `COc1ccc(CCC(=O)OC(C)[C@H](NC(=O)[C@@H](CC(C)C)N(C)C(=O)[C@@H]2CCCN2C(=O)C(C)O)C(=O)OCc2ccccc2)cc1` (stereo partly specified) (H-[ξLac]P[dNMeL][Thr(3ξ)](Propanoyl(3-(4-MeO-Ph)))-OBn), the TGI is more than 100 µM in experiment [1]; more than 100 µM in experiment [2]; more than 100 µM in experiment [3]; 37.9 µM in [4]; more than 100 µM in experiment [5]; 41.6 µM in [6]. In addition, the TGI in [7] is 28.8 µM; in experiment [8], 72.6 µM; in [9], more than 100 µM; in experiment [10], more than 100 µM; in experiment [11], more than 100 µM; in experiment [12] it was more than 100 µM. For the same compound, the TGI was 91.9 µM in experiment [13]; more than 100 µM in [14]; more than 100 µM in [15]; 79.4 µM in experiment [16]; more than 100 µM in experiment [17]; more than 100 µM in experiment [18]. Moreover, the TGI in experiment [19] was more than 100 µM.
In the case of `CC1=C(C(=O)Nc2ccccc2)C(c2ccc(C)o2)C(C#N)=C(SCc2ccccc2)N1` (stereo unspecified), the TGI in [1] is more than 100 µM; in experiment [2], more than 100 µM; in [3], more than 100 µM; in experiment [4] it was more than 100 µM; in experiment [5] it was more than 100 µM; in [6] it was more than 66.4 µM. The TGI in experiment [7], in experiment [8], in experiment [9], in experiment [10], in [11] and in experiment [12] was more than 100 µM in each case. Also, the TGI in [13], in experiment [14], in [15], in experiment [16], in [17] and in experiment [18] was more than 100 µM each time. This compound registered a TGI in experiment [19] of more than 100 µM.
On to `O=C(/C=C/c1cccs1)c1cccc(C(=O)/C=C/c2cccs2)n1`, for which the TGI in experiment [1] is more than 90.6 µM; in [2] it was more than 100 µM; in experiment [3], more than 100 µM; in experiment [4], more than 100 µM; in experiment [5], more than 100 µM; in [6] it was more than 100 µM. Further, the TGI in [7] was more than 100 µM; in [8], 43 µM; in [9], more than 100 µM; in experiment [10], more than 100 µM; in experiment [11], more than 34.1 µM; in experiment [12], more than 100 µM. The TGI in experiment [13] is more than 100 µM; in experiment [14], more than 100 µM; in [15] it was more than 100 µM; in [16], more than 66.3 µM; in [17], more than 100 µM; in experiment [18] it was more than 100 µM. In addition, the TGI in experiment [19] is more than 85 µM.
In the case of `COc1ccc(-n2c3c(c4c(CN(C)C)c(O)ccc42)C(=O)c2ccccc2C3=O)cc1`, the TGI in [1] came to 29.6 µM; in [2], 10.5 µM; in [3] it was 5.11 µM; in [4], 15.7 µM; in experiment [5], 37.1 µM; in experiment [6], 44.8 µM. In addition, the TGI in experiment [7] was 5.67 µM; in [8], 19.5 µM; in experiment [9], 25.4 µM; in experiment [10], 26.2 µM; in experiment [11], 6.3 µM; in experiment [12], 17.1 µM. In addition, the TGI in experiment [13] was 23 µM; in [14], 34.5 µM; in experiment [15], 3.9 µM; in experiment [16] it was 10.7 µM; in [17], 37.5 µM; in experiment [18], 26.3 µM. In [19], this compound came in with a TGI of more than 100 µM.
As to `O=c1c(-c2ccccc2Cl)coc2cc(F)ccc12`, the TGI was more than 100 µM in [1]; more than 100 µM in experiment [2]; more than 100 µM in experiment [3]; 73.6 µM in [4]; more than 100 µM in [5]; 87.1 µM in [6]. The TGI in experiment [7] was more than 100 µM; in [8], 31.2 µM; in [9], more than 100 µM; in experiment [10], more than 100 µM; in [11], more than 100 µM; in [12], more than 100 µM. In addition, the TGI is 51.5 µM in experiment [13]; more than 100 µM in experiment [14]; more than 100 µM in [15]; 71.8 µM in experiment [16]; more than 100 µM in experiment [17]; 46.7 µM in experiment [18]. In addition, in [19], the TGI was more than 100 µM.
With `CN[C@@H](C)[C@H](OP(=O)(O)OC1[C@@H](O)[C@H](O)C(O)[C@H](O)[C@@H]1O)c1ccccc1` (stereo partly specified), the TGI in experiment [1], in experiment [2], in [3], in [4], in experiment [5] and in experiment [6] was more than 100 µM in each case. Besides, the TGI in experiment [7], in [8], in [9], in experiment [10], in [11] and in experiment [12] was more than 100 µM throughout. In addition, the TGI in experiment [13], in [14], in experiment [15], in experiment [16], in [17] and in experiment [18] was more than 100 µM each time. The TGI in experiment [19] is more than 100 µM.
As for `O=C1OC[C@@H]2Cc3c([nH]c4ccccc34)[C@@H](c3cc(O)c(O)c(O)c3)N12`, the TGI in experiment [1] is 98.6 µM; in experiment [2], more than 100 µM; in [3], more than 100 µM; in experiment [4], 75.5 µM; in [5], more than 100 µM; in experiment [6], more than 100 µM. The TGI was 29.2 µM in [7]; 15 µM in experiment [8]; more than 100 µM in [9]; more than 100 µM in experiment [10]; more than 100 µM in experiment [11]; 46.2 µM in experiment [12]. Also, the TGI in experiment [13] was 49.7 µM; in experiment [14] it was more than 100 µM; in experiment [15], more than 100 µM; in experiment [16] it was more than 100 µM; in experiment [17], more than 100 µM; in [18], 72.3 µM. The TGI in [19] came out at 69.1 µM.
Turning to `COc1cc(C(=O)Nc2c3ccccc3nc3ccccc23)cc(OC)c1OC`, the TGI in experiment [1], in experiment [2], in experiment [3], in [4], in experiment [5] and in experiment [6] was more than 100 µM throughout. For the same compound, the TGI in experiment [7] is more than 100 µM; in experiment [8] it was 5.58 µM; in [9] it was more than 100 µM; in [10], more than 100 µM; in [11], more than 100 µM; in experiment [12], more than 100 µM. Also, the TGI in experiment [13] was more than 100 µM; in experiment [14], more than 67 µM; in experiment [15], more than 100 µM; in experiment [16], more than 100 µM; in experiment [17], more than 100 µM; in [18] it was more than 100 µM. Further, the TGI in [19] was more than 100 µM.
For `CC(=O)c1c(-c2ccccc2)c(-c2ccc(OCCN(C)C)cc2)n2ccccc12`, the TGI in experiment [1] came to 36.7 µM; in [2], 22.7 µM; in experiment [3], 32.1 µM; in experiment [4], 30.7 µM; in experiment [5] it was 35.5 µM; in experiment [6] it was 23.1 µM. Also, the TGI in experiment [7] is 24.1 µM; in [8] it was 36.3 µM; in experiment [9] it was 43.8 µM; in [10], 26 µM; in [11], 13.6 µM; in [12] it was more than 100 µM. For the same compound, the TGI was 33.3 µM in experiment [13]; 37.1 µM in [14]; 29.2 µM in experiment [15]; 26.5 µM in [16]; 50.7 µM in experiment [17]; 33.9 µM in [18]. In addition, the TGI in [19] came out at 40.4 µM.
Regarding `COc1ccc(C2SCC(=O)N2NC(=O)C(C)Oc2ccccc2Cl)cc1` (stereo unspecified), the TGI in [1] was more than 100 µM; in experiment [2] it was more than 100 µM; in experiment [3], more than 100 µM; in [4], more than 100 µM; in experiment [5], more than 100 µM; in experiment [6], 77.4 µM. In addition, the TGI in [7] is 65.6 µM; in experiment [8], 35.2 µM; in experiment [9] it was more than 100 µM; in experiment [10], more than 100 µM; in experiment [11], more than 100 µM; in [12], more than 100 µM. In addition, the TGI in [13], in [14], in [15], in experiment [16], in [17] and in [18] was more than 100 µM in each case. In addition, the TGI in [19] was more than 100 µM.
As for `Cc1ccc(/C=N/Nc2nncc3ccccc23)s1`, the TGI in experiment [1], in experiment [2], in [3], in experiment [4], in [5] and in experiment [6] was more than 100 µM throughout. The TGI in experiment [7], in experiment [8], in experiment [9], in experiment [10], in [11] and in experiment [12] was more than 100 µM throughout. Further, the TGI in [13], in [14], in [15], in experiment [16], in experiment [17] and in experiment [18] was more than 100 µM throughout. In experiment [19], the TGI is more than 100 µM.
For `Cc1ccc(O)c(-c2csc(NCN3CCN(CNc4nc(-c5cc(C)ccc5O)cs4)CC3)n2)c1`, the TGI in experiment [1], in experiment [2], in [3], in experiment [4], in experiment [5] and in experiment [6] was more than 100 µM throughout. Further, the TGI in experiment [7], in experiment [8], in experiment [9], in experiment [10], in [11] and in [12] was more than 100 µM throughout. Also, the TGI in experiment [13], in experiment [14], in [15], in experiment [16], in [17] and in experiment [18] was more than 100 µM each time. Moreover, the TGI in experiment [19] was more than 100 µM.
Consider `COc1cc2c3c(n(Cc4ccccc4)c(=O)c2cc1OC)-c1ccccc1C3=O`, for which the TGI in [1], in experiment [2], in experiment [3], in experiment [4], in [5] and in experiment [6] was more than 100 µM throughout. In addition, the TGI in experiment [7], in experiment [8], in experiment [9], in [10], in [11] and in experiment [12] was more than 100 µM each time. Also, the TGI in experiment [13], in experiment [14], in [15], in [16], in [17] and in experiment [18] was more than 100 µM each time. The TGI in experiment [19] was more than 100 µM.
